In US10086086B2, “Payload molecule delivery using molecular rebar” (Molecular Rebar Design, LLC, priority 2014, dated 2018):
Where two headings read alike, the source gives them in different places.

How the values were obtained:
[1] = Displacement of adsorbed payload molecule from discrete carbon nanotubes by later addition of PVOH; assay type: physicochemical
[2] = in water, cited from earlier work
[3] = not given; remark: listed apart in the source

## CCOP(=O)(Cc1ccc(OC)cc1)OCC [D4MBP]
[1]; Example 10, calculation as in Example 1
  D4MBP originally residing on the outermost wall displaced by the PVOH, estimated: about 80%

## NC(=O)CC[C@@H]1NC(=O)[C@H](Cc2ccccc2)NC(=O)[C@H](Cc2ccc(O)cc2)NC(=O)CCSSC[C@@H](C(=O)N2CCC[C@H]2C(=O)N[C@H](CCCN=C(N)N)C(=O)NCC(N)=O)NC(=O)[C@H](CC(N)=O)NC1=O [Desmopressin]
[2]
  Hydrodynamic Radius: 0.88 nm

## O=C(O)c1cccnc1 [Niacin, Pyridine-3-carboxylic acid]
[2]
  Hydrodynamic Radius: 0.33 nm
Example 1, assumes same adsorption concentration on both walls
  ratio of niacin adsorbed internally versus externally (times less internally): about 2.4 times
Example 2: nanotubes with 0.05% weight oxidized species, otherwise as Example 1
  amount of niacin adsorbed after 5 hours: 0.088 g niacin/g discrete carbon nanotubes
Example 3 (PVOH added at the same time) versus Example 1 (no PVOH)
  niacin adsorbed, less than in Example 1: ~30%
Example 5: nanotubes pretreated with PVOH about 20 hours, then niacin added, 100 + 85 minutes
  concentration of adsorbed niacin after a further 85 minutes: 0.0226 g niacin/g of discrete carbon nanotubes
[1]; Example 4: PVOH added after niacin adsorption equilibrium, weight ratio 0.23 PVOH:1 discrete carbon nanotubes
  adsorbed niacin released by subsequent addition of PVOH: 25 % wt.
[3]; Example 6: no PVOH, 2 ml 0.1 molar sodium hydroxide added after equilibrium, pH from about 4 to about 7.3, about 180 minutes
  final adsorption of niacin after sodium hydroxide addition: 0.03 g niacin/g discrete carbon nanotubes
[3]; Example 7: PVOH-encapsulated, 2 ml 0.1 Molar sodium hydroxide, overall period 40 + 55 + 110 minutes, pH about 4.2 to 8
  reduction of the amount of niacin adsorbed on the discrete carbon nanotubes after sodium hydroxide addition: about 42%
[3]; Example 7: niacin then PVOH, PVOH to discrete carbon nanotubes 0.3:1 by weight
  equilibrium niacin concentration on discrete carbon nanotubes before pH increase: 0.0476 g niacin/g discrete carbon nanotubes

## CN1CCCC1c1cccnc1 (centres unmarked) [Nicotine]
[2]
  Hydrodynamic Radius: 0.38 nm

## Bovine serum albumin
[2]
  Hydrodynamic Radius: 7.0 nm
[2]; listed as bovine serum albumin
  Hydrodynamic Radius: 7 nm

## Cytochrome C
[2]
  Hydrodynamic Radius: 2.64 nm

## Insulin
[2]
  Hydrodynamic Radius: 2.1 nm

B1: Myoglobin (protein, UniProt P68082 2-154, looked up)
Myoglobin: GLSDGEWQQVLNVWGKVEADIAGHGQEVLIRLFTGHPETLEKFDKFKHLKTEAEMKASEDLKKHGTVVLTALGGILKKKGHHEAELKPLAQSHATKHKIPIKYLEFISDAIIHVLHSKHPGDFGADAQGAMTKALELFRNDIAAKYKELGFQG
[2]
  Hydrodynamic Radius: 3.34 nm
